Experiment [1] concerns A2780 ovarian cells. In words: A2780 ovarian cell proliferation assay in lipid reduced medium, without palmitate (MTT). The format is cell-based. As to conditions: Homo sapiens, A2780, 96 h; read-out: pIC50 A2780 Ovarian Cell, Without Palmitate (converted).
In experiment [2] the test system is A2780 ovarian cells. The experiment in a line: A2780 ovarian cell proliferation assay in lipid reduced medium, with palmitate (MTT). The format is cell-based. To be noted: Homo sapiens, A2780, 96 h; read-out: pIC50 A2780 Ovarian Cell, With Palmitate (converted). A digest of the protocol:
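In this palmitate-supplemented format, compound dilutions (30 μM down to 0.01 μM) are added to cells in lipid-reduced serum with 25 μM palmitate, 0.2% fatty-acid-free BSA and 0.25% ethanol. After four days (96 h) MTT absorbance at 544 nm is recorded and fitted by minimum sum of squares.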

The target of experiment [3] is T1, hFASN enzyme (full length) (Homo sapiens, UniProt P49327).
T1 construct: 10 μL hFASN enzyme (full length, 300 ng, purified in house); made in house
T1 sequence (P49327 whole entry): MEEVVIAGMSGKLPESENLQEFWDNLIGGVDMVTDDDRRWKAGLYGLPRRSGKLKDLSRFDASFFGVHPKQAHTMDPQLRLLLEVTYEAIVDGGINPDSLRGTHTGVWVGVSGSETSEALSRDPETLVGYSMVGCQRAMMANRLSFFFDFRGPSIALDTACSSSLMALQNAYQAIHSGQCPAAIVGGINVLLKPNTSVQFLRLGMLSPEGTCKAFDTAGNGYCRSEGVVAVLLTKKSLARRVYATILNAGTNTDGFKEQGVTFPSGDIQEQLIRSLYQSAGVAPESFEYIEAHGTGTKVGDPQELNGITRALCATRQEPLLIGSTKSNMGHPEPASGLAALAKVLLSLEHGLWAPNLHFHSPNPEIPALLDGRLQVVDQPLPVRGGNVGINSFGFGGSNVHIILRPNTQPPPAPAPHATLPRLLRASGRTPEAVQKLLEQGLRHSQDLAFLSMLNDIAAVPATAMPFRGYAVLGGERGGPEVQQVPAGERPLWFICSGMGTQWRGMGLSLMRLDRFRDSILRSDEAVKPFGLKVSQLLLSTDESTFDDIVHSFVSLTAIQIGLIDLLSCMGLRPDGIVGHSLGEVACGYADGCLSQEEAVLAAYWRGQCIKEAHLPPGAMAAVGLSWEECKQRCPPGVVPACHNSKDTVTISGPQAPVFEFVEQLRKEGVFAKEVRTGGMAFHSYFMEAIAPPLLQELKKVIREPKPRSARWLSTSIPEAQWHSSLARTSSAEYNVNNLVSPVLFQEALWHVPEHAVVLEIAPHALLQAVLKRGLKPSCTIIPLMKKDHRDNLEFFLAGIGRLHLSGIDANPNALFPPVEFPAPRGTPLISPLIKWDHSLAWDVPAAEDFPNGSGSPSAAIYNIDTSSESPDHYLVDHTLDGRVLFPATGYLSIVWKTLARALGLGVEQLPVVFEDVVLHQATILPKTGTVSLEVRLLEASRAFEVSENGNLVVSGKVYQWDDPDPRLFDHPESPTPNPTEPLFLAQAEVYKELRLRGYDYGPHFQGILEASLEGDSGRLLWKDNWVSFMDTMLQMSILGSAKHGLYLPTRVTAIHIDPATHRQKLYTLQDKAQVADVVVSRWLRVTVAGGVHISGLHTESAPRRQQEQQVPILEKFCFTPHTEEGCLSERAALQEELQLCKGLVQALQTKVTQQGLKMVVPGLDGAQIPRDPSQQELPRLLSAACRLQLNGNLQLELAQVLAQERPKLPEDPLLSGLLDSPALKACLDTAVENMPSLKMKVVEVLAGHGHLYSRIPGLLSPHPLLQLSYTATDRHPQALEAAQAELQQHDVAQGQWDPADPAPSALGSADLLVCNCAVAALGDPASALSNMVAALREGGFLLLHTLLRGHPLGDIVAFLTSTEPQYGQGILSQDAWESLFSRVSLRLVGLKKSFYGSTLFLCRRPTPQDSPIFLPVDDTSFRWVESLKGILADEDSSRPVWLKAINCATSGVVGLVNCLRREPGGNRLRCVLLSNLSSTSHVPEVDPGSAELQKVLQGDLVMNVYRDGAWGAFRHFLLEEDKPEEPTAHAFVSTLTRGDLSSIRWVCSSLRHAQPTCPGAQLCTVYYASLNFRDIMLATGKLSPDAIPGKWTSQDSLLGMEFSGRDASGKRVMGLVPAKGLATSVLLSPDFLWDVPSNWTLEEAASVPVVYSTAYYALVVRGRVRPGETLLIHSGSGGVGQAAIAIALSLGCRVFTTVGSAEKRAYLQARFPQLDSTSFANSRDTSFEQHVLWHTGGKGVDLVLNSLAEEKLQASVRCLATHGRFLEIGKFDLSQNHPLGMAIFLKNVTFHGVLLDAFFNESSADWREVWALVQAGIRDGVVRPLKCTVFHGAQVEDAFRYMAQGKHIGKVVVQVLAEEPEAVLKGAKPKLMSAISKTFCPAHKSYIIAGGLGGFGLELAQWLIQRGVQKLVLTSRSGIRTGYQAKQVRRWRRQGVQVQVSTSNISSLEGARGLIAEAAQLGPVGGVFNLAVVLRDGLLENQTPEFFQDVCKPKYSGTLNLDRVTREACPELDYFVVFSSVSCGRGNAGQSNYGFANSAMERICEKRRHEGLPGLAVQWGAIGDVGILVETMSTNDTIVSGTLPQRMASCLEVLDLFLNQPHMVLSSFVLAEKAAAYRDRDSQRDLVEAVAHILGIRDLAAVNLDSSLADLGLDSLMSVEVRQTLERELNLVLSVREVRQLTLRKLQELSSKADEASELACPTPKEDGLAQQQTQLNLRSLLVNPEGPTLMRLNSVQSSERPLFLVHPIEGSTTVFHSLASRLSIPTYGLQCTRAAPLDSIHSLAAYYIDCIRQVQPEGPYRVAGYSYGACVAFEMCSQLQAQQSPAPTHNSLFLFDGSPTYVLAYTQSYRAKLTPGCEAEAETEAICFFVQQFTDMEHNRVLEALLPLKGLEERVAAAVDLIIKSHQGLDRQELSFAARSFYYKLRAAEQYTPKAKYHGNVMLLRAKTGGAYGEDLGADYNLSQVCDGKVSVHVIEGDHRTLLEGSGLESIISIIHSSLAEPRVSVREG
In words: Fatty Acid Synthase (FASN) inhibition scintillation proximity assay. In kind it is biochemical. To be noted: for inhibition at 10 µM: read-out: Human FASN % inhibition @ 10 μM, 10 μM test compound; for IC50: read-out: Human FASN pIC50 (converted). A digest of the protocol:
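Scintillation proximity format: in-house full-length enzyme, 300 ng per well, pH 7.5 phosphate/DTT buffer, ³H-acetyl-CoA and malonyl-CoA. Emission counted on LEADseeker at 610 nm at least 24 h after stopping.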

With `O=C(C1CC1)N1CC(CN2C(=O)C3(CC3)N=C2c2ccc(-c3cccc(S(=O)(=O)C4CC4)c3)cc2F)C1` [compound 651, 6-{[1-(Cyclopropylcarbonyl)azetidin-3-yl]methyl}-5-[3′-(cyclopropylsulfonyl)-3-fluorobiphenyl-4-yl]-4,6-diazaspiro[2.4]hept-4-en-7-one], the IC50 was 2.75 µM in the experiment on A2780 ovarian cells [1], greater than 10 µM in the experiment with A2780 ovarian cells [2] and 3.09 µM in experiment [3]. Also, the inhibition at 10 µM in experiment [3] was determined as 77%.

`Cn1c(-c2ccc(C3=NC4(CC4)C(=O)N3CC3CN(C(=O)C4CC4)C3)c(F)c2)nc2ccc(F)cc21` [compound 653, 6-{[1-(Cyclopropylcarbonyl)azetidin-3-yl]methyl}-5-[2-fluoro-4-(6-fluoro-1-methyl-1H-benzimidazol-2-yl)phenyl]-4,6-diazaspiro[2.4]hept-4-en-7-one]: the IC50 in the experiment on A2780 ovarian cells [1] was 4.17 µM; in the experiment with A2780 ovarian cells [2], greater than 10 µM; in experiment [3], 3.02 µM. Besides, in experiment [3], the inhibition at 10 µM was 71%.

As for `Cc1nc2ccc(-c3ccc(C4=NC5(CC5)C(=O)N4CC4CN(C(=O)C5CC5)C4)c(F)c3)cc2n1C` [compound 654, 6-{[1-(Cyclopropylcarbonyl)azetidin-3-yl]methyl}-5-[4-(1,2-dimethyl-1H-benzimidazol-6-yl)-2-fluorophenyl]-4,6-diazaspiro[2.4]hept-4-en-7-one], the IC50 was 2.19 µM with A2780 ovarian cells [1], greater than 10 µM with A2780 ovarian cells [2] and 1.15 µM in experiment [3]. In addition, the inhibition at 10 µM in experiment [3] came to 83%.

As to `COC(=O)N1CC[C@@H](CN2C(=O)C3(CCOCC3)N=C2c2ccc(-c3ccc4cccnc4c3)cc2)C1` [compound 664, Methyl (3S)-3-{[4-oxo-2-(4-quinolin-7-ylphenyl)-8-oxa-1,3-diazaspiro[4.5]dec-1-en-3-yl]methyl}pyrrolidine-1-carboxylate], the IC50 in the experiment with A2780 ovarian cells [1] was roughly 2.88 µM; in the experiment with A2780 ovarian cells [2] it was greater than 10 µM; in experiment [3], 3.72 µM. For the same compound, the inhibition at 10 µM in experiment [3] is 87%.

As to `COC(=O)N1CC[C@@H](CN2C(=O)C3(CCOC3)N=C2c2ccc(-c3ccc4cccnc4c3)cc2)C1` (stereo partly drawn) [compound 683, Methyl (3S)-{[4-oxo-2-(4-quinolin-7-ylphenyl)-7-oxa-1,3-diazaspiro[4.4]non-1-en-3-yl]methyl}pyrrolidin-1-carboxylate], the IC50 in the experiment on A2780 ovarian cells [1] is greater than 10 µM; with A2780 ovarian cells [2] it was greater than 10 µM; in experiment [3], 4.17 µM. The inhibition at 10 µM in experiment [3] was determined as 63%.

With `Cc1cc(-c2cccc(S(C)(=O)=O)c2)ccc1C1=NC2(CC2)C(=O)N1CC1CN(C(=O)C2CC2)C1` [compound 775, 6-((1-(cyclopropanecarbonyl)azetidin-3-yl)methyl)-5-(3-methyl-3′-(methylsulfonyl)-[1,1′-biphenyl]-4-yl)-4,6-diazaspiro[2.4]hept-4-en-7-one], the IC50 (with A2780 ovarian cells [1]; with A2780 ovarian cells [2]; in experiment [3]) was greater than 10 µM throughout. In addition, the inhibition at 10 µM in experiment [3] came out at 34%.

Regarding `Cc1cc(-c2cccc(S(=O)(=O)C(C)C)c2)ccc1C1=NC2(CC2)C(=O)N1CC1CN(C(=O)C2CC2)C1` [compound 776, 6-((1-(cyclopropanecarbonyl)azetidin-3-yl)methyl)-5-(3′-(isopropylsulfonyl)-3-methyl-[1,1′-biphenyl]-4-yl)-4,6-diazaspiro[2.4]hept-4-en-7-one], the IC50 (with A2780 ovarian cells [1]; with A2780 ovarian cells [2]; in experiment [3]) was greater than 10 µM in each case. Besides, the inhibition at 10 µM in experiment [3] was 25%.

Turning to `CS(=O)(=O)c1cccc(-c2ccc(C3=NC4(CC4)C(=O)N3CC3CN(C(=O)C4CC4)C3)c(F)c2)c1` [compound 777, 6-((1-(cyclopropanecarbonyl)azetidin-3-yl)methyl)-5-(3-fluoro-3′-(methylsulfonyl)-[1,1′-biphenyl]-4-yl)-4,6-diazaspiro[2.4]hept-4-en-7-one], the IC50 with A2780 ovarian cells [1] was 9.55 µM; in the experiment on A2780 ovarian cells [2] it was greater than 10 µM; in experiment [3] it was greater than 10 µM. Also, the inhibition at 10 µM in experiment [3] is 34%.

As for `CC(C)c1ccc(-c2ccc(C3=NC4(CC4)C(=O)N3CC3CN(C(=O)C4CC4)C3)cc2)cn1` [compound 784, 6-((1-(cyclopropanecarbonyl)azetidin-3-yl)methyl)-5-(4-(6-isopropylpyridin-3-yl)phenyl)-4,6-diazaspiro[2.4]hept-4-en-7-one], the results for the IC50 (in the experiment with A2780 ovarian cells [1]; in the experiment with A2780 ovarian cells [2]; in experiment [3]) were 5.89 µM, greater than 10 µM and greater than 10 µM, respectively. Besides, the inhibition at 10 µM in experiment [3] was 14%.

Take `Cc1cc(-c2ccc(-c3ccnn3CC(C)C)cc2)ccc1C1=NC2(CC2)C(=O)N1CC1CN(C(=O)C2(C)CC2)C1` [compound 785]: the IC50 is 3.89 µM with A2780 ovarian cells [1], roughly 6.17 µM with A2780 ovarian cells [2] and greater than 10 µM in experiment [3]. For the same compound, the inhibition at 10 µM in experiment [3] amounted to 24%.

Turning to `Cc1cc(-c2ccc(-c3ccnn3CC3CC3)cc2)ccc1C1=NC2(CC2)C(=O)N1CC1CN(C(=O)C2(C)CC2)C1` [compound 786, 5-(4′-(1-(cyclopropylmethyl)-1H-pyrazol-5-yl)-3-methyl-[1,1′-biphenyl]-4-yl)-6-((1-(1-methylcyclopeopanecarbonyl)azetidin-3-yl)methyl)-4,6-diazaspiro[2.4]hept-4-en-7-one], the IC50 with A2780 ovarian cells [1] was 6.76 µM; in the experiment on A2780 ovarian cells [2], 5.89 µM; in experiment [3] it was greater than 10 µM. In experiment [3], the inhibition at 10 µM amounted to 31%.

On to `Cc1cc(-c2nc3cc(Br)ccc3cc2C)ccc1C1=NC2(CC2)C(=O)N1CC1CN(C(=O)C2(C)CC2)C1` [compound 787, 5-(4-(7-bromo-3-methylquinolin-2-yl)-2-methylphenyl)-6-((1-(1-methylcyclopropanecarbonyl)azetidin-3-yl)methyl)-4,6-diazaspiro[2.4]hept-4-en-7-one], for which the IC50 in the experiment with A2780 ovarian cells [1] is 9.33 µM; in the experiment with A2780 ovarian cells [2], greater than 10 µM; in experiment [3], greater than 10 µM. Also, the inhibition at 10 µM in experiment [3] worked out at 38%.

Consider `O=C(C1CC1)N1CC(CN2C(=O)C3(CC3)N=C2c2ccc(-c3ccc4c(cnn4C4COC4)c3)cc2)C1` [compound 788, 6-((1-(cyclopropanecarbonyl)azetidin-3-yl)methyl)-5-(4-(1-(oxetan-3-yl)-1H-indazol-5-yl)phenyl)-4,6-diazaspiro[2.4]hept-4-en-7-one], for which the IC50 (with A2780 ovarian cells [1]; with A2780 ovarian cells [2]; in experiment [3]) was greater than 10 µM in each case. Further, the inhibition at 10 µM in experiment [3] stood at 14%.

`O=C(C1CC1)N1CC(CN2C(=O)C3(CC3)N=C2c2ccc(-c3ccc4c(cnn4C4COC4)c3)cc2F)C1` [compound 789, 6-((1-(cyclopropanecarbonyl)azetidin-3-yl)methyl)-5-(2-fluoro-4-(1-(oxetan-3-yl)-1H-indazol-5-yl)phenyl)-4,6-diazaspiro[2.4]hept-4-en-7-one]: the IC50 (in the experiment on A2780 ovarian cells [1]; in the experiment on A2780 ovarian cells [2]; in experiment [3]) was greater than 10 µM each time. The inhibition at 10 µM in experiment [3] stood at 26%.

On to `Cc1ccc2c(-c3ccc(C4=NC5(CC5)C(=O)N4CC4CN(C(=O)C5CC5)C4)cc3)cccc2n1` [compound 790, 6-((1-(cyclopropanecarbonyl)azetidin-3-yl)methyl)-5-(4-(2-methy7lquinolin-5-yl)phenyl)-4,6-diazaspiro[2.4]jept-4-en-7-one], for which the IC50 (in the experiment on A2780 ovarian cells [1]; in the experiment on A2780 ovarian cells [2]; in experiment [3]) was greater than 10 µM throughout. The inhibition at 10 µM in experiment [3] was 47%.

For `Cc1cc(-c2ccc(C3=NC4(CC4)C(=O)N3CC3CN(C(=O)C4CC4)C3)cc2)nc2cc(Br)ccc12` [compound 791, 5-(4-(7-bromo-4-methylquinolin-2-yl)phenyl)-6-((1-(cyclopropanecarbonyl)azetidin-3-yl)methyl)4,6-diazaspiro[2.4]hept-4-en-7-one], the IC50 was greater than 6.17 µM in the experiment with A2780 ovarian cells [1], greater than 6.17 µM in the experiment on A2780 ovarian cells [2] and greater than 10 µM in experiment [3]. Also, the inhibition at 10 µM in experiment [3] was -2%.

For `Cn1ncc2nc(-c3ccc(C4=NC5(CC5)C(=O)N4CC4CN(C(=O)C5CC5)C4)cc3)ccc21` [compound 792, 6-((1-(cyclopropanecarbonyl)azetidin-3-yl)methyl)-5-(4-(1-methyl-1H-pyrazolo[4,3-b]pyridin-5-yl)phenyl)-4,6-diazaspiro[2.4]hept-4-en-7-one], the IC50 (in the experiment with A2780 ovarian cells [1]; in the experiment on A2780 ovarian cells [2]; in experiment [3]) was greater than 10 µM each time. Also, the inhibition at 10 µM in experiment [3] stood at 38%.

As to `Cc1nnc2ccc(-c3ccc(C4=NC5(CC5)C(=O)N4CC4CN(C(=O)C5CC5)C4)cc3)cn12` [compound 793, 6-((1-(cyclopropanecarbonyl)azetidin-3-yl)methyl)-5-(4-(3-methyl-[1,2,4]triazolo[4,3-a]pyridin-6-yl)phenyl)-4,6-diazaspiro[2.4]hept-4-en-7-one], the IC50 (with A2780 ovarian cells [1]; with A2780 ovarian cells [2]; in experiment [3]) was greater than 10 µM each time. The inhibition at 10 µM in experiment [3] was found to be 13%.

As for `CC(C)(O)c1ccc(-c2ccc(C3=NC4(CC4)C(=O)N3CC3CN(C(=O)C4CC4)C3)cc2)nc1` [compound 794, 6-((1-(cyclopropanecarbonyl)azetidin-3-yl)methyl)-5-(4-(5-(2-hydroxypropan-2-yl)pyridin-2-yl)phenyl)-4,6-diazaspiro[2.4]hept-4-en-7-one], the IC50 (in the experiment on A2780 ovarian cells [1]; in the experiment on A2780 ovarian cells [2]; in experiment [3]) was greater than 10 µM throughout. Besides, the inhibition at 10 µM in experiment [3] is -15%.

The values above are taken from patent publication US10077261B2, “Imidazolin-5-one derivative useful as FASN inhibitors for the treatment of cancer” (Janssen Pharmaceutica NV, priority 2012, dated 2018).
